# Activity calls are given as the source filed them. The rule behind the calls is not given here.
# Experiments:
# MCF7 = experiment: Cytotoxicity against human MCF7 cells assessed as reduction in cell viability after 48 hrs by MTT assay; type: functional, cell-based; settings: MCF7, 48 h
# MDA-MB-231 [1] = experiment: Cytotoxicity against human MDA-MB-231 cells assessed as reduction in cell viability after 48 hrs by MTT assay; type: functional, cell-based; settings: MDA-MB-231, 48 h
# A549 = experiment: Cytotoxicity against human A549 cells assessed as reduction in cell viability after 48 hrs by MTT assay; type: functional, cell-based; settings: A549, 48 h
# [2] = Cytotoxicity against human KBVIN cells assessed as reduction in cell viability after 48 hrs by MTT assay; type: functional, cell-based
# KB = experiment: Cytotoxicity against human KB cells assessed as reduction in cell viability after 48 hrs by MTT assay; type: functional, cell-based
# [3] = Hemolytic activity against New Zealand rabbit erythrocytes after 60 mins; type: ADME, cell-based, Oryctolagus cuniculus, Erythrocyte; settings: read-out: HD50
# MDA-MB-231 [4] = experiment: Cell cycle arrest in human MDA-MB-231 cells assessed as accumulation at G1 phase at 5.5 uM after 24 hrs by propidium iodide staining based flow cytometry; type: functional
# BGC-823 = experiment: Cytotoxicity against human BGC823 cells assessed as reduction in cell viability after 48 hrs by MTT assay; type: functional, cell-based; settings: BGC-823, 48 h
# SMMC-7721 = experiment: Cytotoxicity against human SMMC7721 cells assessed as reduction in cell viability after 48 hrs by MTT assay; type: functional, cell-based; settings: SMMC-7721, 48 h
# H22 = experiment: Antitumor activity against […] xenografted in mouse assessed as tumor growth inhibition at 60 mg/kg/day, ip for 14 days relative to control; type: functional; settings: 336 h, read-out: TGI
# Mus musculus [5] = experiment: Toxicity in mouse xenografted with […] assessed as hematuria at 60 mg/kg/day, ip for 14 days; type: organism-based; settings: in vivo, 336 h
# Mus musculus [6] = experiment: Toxicity in mouse xenografted with […] assessed as death at 60 mg/kg/day, ip for 14 days; type: organism-based; settings: in vivo, 336 h
# Blood = experiment: Drug metabolism in mouse blood assessed as Pulsatilla saponin A formation at 60 mg/kg/day, ip for 14 days; type: ADME, organism-based; settings: in vivo, 336 h
Structure (SMILES),IC50 (A549) [µM],HC50 at 1 h [3] [µM],IC50 (BGC-823) [µM],IC50 (SMMC-7721) [µM],other results
CC1(C)CC[C@]2(C(=O)N3CCN(CCC(=O)O)CC3)CC[C@]3(C)C(=CC[C@@H]4[C@@]5(C)CC[C@H](O)[C@@](C)(CO)[C@@H]5CC[C@]43C)[C@@H]2C1,31.5,> 500,,,IC50 (MCF7): > 40 µM; IC50 (MDA-MB-231 [1]): 32.9 µM; IC50 [2]: > 40 µM; IC50 (KB): 15 µM
COC(=O)CCN1CCN(C(=O)[C@]23CCC(C)(C)C[C@H]2C2=CC[C@@H]4[C@@]5(C)CC[C@H](OC(C)=O)[C@@](C)(COC(C)=O)[C@@H]5CC[C@@]4(C)[C@]2(C)CC3)CC1,4.69,> 500,,,IC50 (MCF7): 10.7 µM; IC50 (MDA-MB-231 [1]): 5.54 µM; IC50 [2]: 5.25 µM; IC50 (KB): 5.08 µM; Activity (MDA-MB-231 [4]): Active
C[C@H]1O[C@@H](O[C@H]2[C@H](O[C@H]3CC[C@@]4(C)[C@@H](CC[C@]5(C)[C@@H]4CC(=O)[C@]46OC(=O)[C@@]7(CCC(C)(C)C[C@H]74)CC[C@@]56C)[C@]3(C)CO)OC[C@H](O)[C@@H]2O)[C@H](O)[C@H](O)[C@H]1O,> 100,> 500,80.3,70.6,
C[C@H]1O[C@@H](O[C@H]2[C@H](O[C@H]3CC[C@@]4(C)[C@@H](CC[C@]5(C)[C@@H]4CC=C4[C@@H]6CC(C)(C)CC[C@]6(C(=O)OCCO[N+](=O)[O-])CC[C@]45C)[C@]3(C)CO)OC[C@H](O)[C@@H]2O)[C@H](O)[C@H](O)[C@H]1O,80.2,16.2,33.1,17.8,
C[C@H]1O[C@@H](O[C@H]2[C@H](O[C@H]3CC[C@@]4(C)[C@@H](CC[C@]5(C)[C@@H]4CC=C4[C@@H]6CC(C)(C)CC[C@]6(C(=O)OCCCCO[N+](=O)[O-])CC[C@]45C)[C@]3(C)CO)OC[C@H](O)[C@@H]2O)[C@H](O)[C@H](O)[C@H]1O,84.5,14.9,66.5,22.1,
C[C@H]1O[C@@H](O[C@H]2[C@H](O[C@H]3CC[C@@]4(C)[C@@H](CC[C@]5(C)[C@@H]4C(=O)C=C4[C@@H]6CC(C)(C)CC[C@]6(C(=O)NCC(=O)O)CC[C@]45C)[C@]3(C)CO)OC[C@H](O)[C@@H]2O)[C@H](O)[C@H](O)[C@H]1O,> 100,461,93.7,46.7,
C[C@H]1O[C@@H](O[C@H]2[C@H](O[C@H]3CC[C@@]4(C)[C@@H](CC[C@]5(C)[C@@H]4CC=C4[C@@H]6CC(C)(C)CC[C@]6(C(=O)NCCCCCC(=O)O)CC[C@]45C)[C@]3(C)CO)OC[C@H](O)[C@@H]2O)[C@H](O)[C@H](O)[C@H]1O,> 100,393,65.5,27.4,
C[C@@H]1O[C@@H](O[C@H]2[C@H](O[C@H]3CC[C@@]4(C)[C@@H](CC[C@]5(C)[C@@H]4CC=C4[C@@H]6CC(C)(C)CC[C@]6(C(=O)NCC(=O)O)CC[C@]45C)[C@]3(C)CO)OC[C@H](O)[C@@H]2O)[C@H](O)[C@@H](O)[C@H]1O,,,,,inhibition in vivo at 60 mg/kg/day (H22): 35.6%; Activity (Mus musculus [5]): Non-Toxic; Activity (Mus musculus [6]): Non-Toxic; Drug metabolism (Blood): Metabolite_Notdetected
C[C@H]1O[C@@H](O[C@H]2[C@H](O[C@H]3CC[C@@]4(C)[C@@H](CC[C@]5(C)[C@@H]4CC(=O)[C@@H]4[C@@H]6CC(C)(C)CC[C@]6(C(=O)NCC(=O)O)CC[C@]45C)[C@]3(C)CO)OC[C@H](O)[C@@H]2O)[C@H](O)[C@H](O)[C@H]1O,95.8,339,86.1,44,
CC1(C)CC[C@]2(C(=O)O)CC[C@]3(C)C(=CC[C@@H]4[C@@]5(C)CC[C@H](O)[C@@](C)(CO)[C@@H]5CC[C@]43C)[C@@H]2C1 [HEDERAGENIN],10.2,> 200,,,IC50 (MCF7): 39.4 µM; IC50 (MDA-MB-231 [1]): 36.6 µM; IC50 [2]: 27.9 µM; IC50 (KB): 14.6 µM
C[C@H]1O[C@@H](O[C@H]2[C@H](O[C@H]3CC[C@@]4(C)[C@@H](CC[C@]5(C)[C@@H]4CC=C4[C@@H]6CC(C)(C)CC[C@]6(C(=O)NCCCC(=O)O)CC[C@]45C)[C@]3(C)CO)OC[C@H](O)[C@@H]2O)[C@H](O)[C@H](O)[C@H]1O,98.7,313,70.2,27.3,
CC(=O)OC[C@@]1(C)[C@@H]2CC[C@]3(C)[C@H](CC(O)[C@]45OC(=O)[C@@]6(CCC(C)(C)C[C@H]64)CC[C@@]35C)[C@@]2(C)CC[C@@H]1O[C@@H]1OC[C@H](OC(C)=O)[C@H](OC(C)=O)[C@H]1O[C@@H]1O[C@H](C)[C@H](OC(C)=O)[C@@H](OC(C)=O)[C@H]1OC(C)=O (stereo partly drawn),> 100,,> 100,90.2,
C[C@@H]1O[C@@H](O[C@H]2[C@H](O[C@H]3CC[C@@]4(C)[C@@H](CC[C@]5(C)[C@@H]4CC=C4[C@@H]6CC(C)(C)CC[C@]6(C(=O)O)CC[C@]45C)[C@]3(C)CO)OC[C@H](O)[C@@H]2O)[C@H](O)[C@@H](O)[C@H]1O,18.6 to 20.9,3.86,14.6,12.2,IC50 (MCF7): 22.2 µM; IC50 (MDA-MB-231 [1]): 17.8 µM; IC50 [2]: 19.6 µM; IC50 (KB): 20.7 µM
C[C@H]1O[C@@H](O[C@H]2[C@H](O[C@H]3CC[C@@]4(C)[C@@H](CC[C@]5(C)[C@@H]4CC(O)[C@]46OC(=O)[C@@]7(CCC(C)(C)C[C@H]74)CC[C@@]56C)[C@]3(C)CO)OC[C@H](O)[C@@H]2O)[C@H](O)[C@H](O)[C@H]1O (stereo partly drawn),> 100,77.7,81.9,56.6,
C[C@H]1O[C@@H](O[C@H]2[C@H](O[C@H]3CC[C@@]4(C)[C@@H](CC[C@]5(C)[C@@H]4CC(=O)[C@@H]4[C@@H]6CC(C)(C)CC[C@]6(C(=O)O)CC[C@]45C)[C@]3(C)CO)OC[C@H](O)[C@@H]2O)[C@H](O)[C@H](O)[C@H]1O,91,190,77.2,53.8,
C[C@H]1O[C@@H](O[C@H]2[C@H](O[C@H]3CC[C@@]4(C)[C@@H](CC[C@]5(C)[C@@H]4CC=C4[C@@H]6CC(C)(C)CC[C@]6(C(=O)NCC(=O)NCC(=O)O)CC[C@]45C)[C@]3(C)CO)OC[C@H](O)[C@@H]2O)[C@H](O)[C@H](O)[C@H]1O,> 100,> 500,76.3,57.8,
C[C@H]1O[C@@H](O[C@H]2[C@H](O[C@H]3CC[C@@]4(C)[C@@H](CC[C@]5(C)[C@@H]4CC=C4[C@@H]6CC(C)(C)CC[C@]6(C(=O)NCCCCC(=O)O)CC[C@]45C)[C@]3(C)CO)OC[C@H](O)[C@@H]2O)[C@H](O)[C@H](O)[C@H]1O,> 100,228,67.8,26.8,
C[C@H]1O[C@@H](O[C@H]2[C@H](O[C@H]3CC[C@@]4(C)[C@@H](CC[C@]5(C)[C@@H]4C/C(=N/O)[C@@H]4[C@@H]6CC(C)(C)CC[C@]6(C(=O)O)CC[C@]45C)[C@]3(C)CO)OC[C@H](O)[C@@H]2O)[C@H](O)[C@H](O)[C@H]1O,> 100,> 500,95.6,69.4,
CC(=O)OC[C@@]1(C)[C@@H]2CC[C@]3(C)[C@H](CC=C4[C@@H]5CC(C)(C)CC[C@]5(C(=O)O)CC[C@]43C)[C@@]2(C)CC[C@@H]1O[C@@H]1OC[C@H](OC(C)=O)[C@H](OC(C)=O)[C@H]1O[C@@H]1O[C@H](C)[C@H](OC(C)=O)[C@@H](OC(C)=O)[C@H]1OC(C)=O,72.1,,74,69.9,
C[C@H]1O[C@@H](O[C@H]2[C@H](O[C@H]3CC[C@@]4(C)[C@@H](CC[C@]5(C)[C@@H]4C(=O)C=C4[C@@H]6CC(C)(C)CC[C@]6(C(=O)O)CC[C@]45C)[C@]3(C)CO)OC[C@H](O)[C@@H]2O)[C@H](O)[C@H](O)[C@H]1O,> 100,> 500,82.6,58.8,
C[C@H]1O[C@@H](O[C@H]2[C@H](O[C@H]3CC[C@@]4(C)[C@@H](CC[C@]5(C)[C@@H]4CC=C4[C@@H]6CC(C)(C)CC[C@]6(C(=O)OCCCCCCO[N+](=O)[O-])CC[C@]45C)[C@]3(C)CO)OC[C@H](O)[C@@H]2O)[C@H](O)[C@H](O)[C@H]1O,65.2,3.79,33.1,15.4,

# Source: ChEMBL document CHEMBL4007448, “The derivatives of Pulsatilla saponin A, a bioactive compound from Pulsatilla chinensis: Their synthesis, cytotoxicity, haemolytic toxicity and mechanism of action” (Eur J Med Chem, 2017)
